# According to patent US20240270762A1, “PENICILLIN-BINDING PROTEIN INHIBITORS” (priority 2021, published 2024):
# How the values were obtained:
# [1] = molecular target: T1, PBP3 from Pseudomonas aeruginosa (PAO1) (Pseudomonas aeruginosa, UniProt G3XD46); experiment: Bocillin-FL fluorescence polarization competition binding, P. aeruginosa PBP3; details: Binding affinity to P. aeruginosa PBP3; fluorescence polarization competition binding assay using Bocillin-FL; read-out: P. aeruginosa PBP3 Potency
# T1 construct: made in house
# T1 sequence (G3XD46 whole entry): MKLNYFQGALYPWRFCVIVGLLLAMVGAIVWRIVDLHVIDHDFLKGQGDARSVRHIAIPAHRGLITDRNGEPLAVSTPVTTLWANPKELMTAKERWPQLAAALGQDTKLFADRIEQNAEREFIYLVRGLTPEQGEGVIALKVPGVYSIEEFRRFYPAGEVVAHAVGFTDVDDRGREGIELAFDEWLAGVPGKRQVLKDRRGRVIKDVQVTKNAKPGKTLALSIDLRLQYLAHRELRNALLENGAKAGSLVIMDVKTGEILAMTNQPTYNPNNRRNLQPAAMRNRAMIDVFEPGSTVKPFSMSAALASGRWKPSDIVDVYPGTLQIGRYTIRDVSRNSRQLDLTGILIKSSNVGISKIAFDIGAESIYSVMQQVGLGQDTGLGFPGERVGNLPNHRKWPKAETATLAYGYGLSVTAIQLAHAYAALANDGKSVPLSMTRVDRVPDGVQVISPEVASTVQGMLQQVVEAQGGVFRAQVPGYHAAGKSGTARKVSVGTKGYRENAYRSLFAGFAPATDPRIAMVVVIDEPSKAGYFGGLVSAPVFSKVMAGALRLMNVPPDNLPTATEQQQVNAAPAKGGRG
# How it was run: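 Purified PBPs pre-incubated with inhibitor (E. coli PBP3 1.5 μM, 30 min; P. aeruginosa PBP3 0.75 μM, A. baumannii PBP1a 1 μM and PBP3 0.2 μM, 15 min), then Bocillin-FL 0.1 μM (0.05 μM for PBP1a) added; FP read up to 60 min. EC50 = concentration halving bound Bocillin-FL.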
# [2] = tested on: E. coli AG100; experiment: microbe, parasite or virus in culture; assay type: cell-based; details: Escherichia coli, AG100, read-out: MIC E. coli AG100
# [3] = tested on: E. coli 901C; experiment: microbe, parasite or virus in culture; assay type: cell-based; details: Escherichia coli, read-out: MIC E. coli 901C
# [4] = tested on: E. coli AG100A; experiment: Broth microdilution MIC in CAMHB; assay type: cell-based; details: Escherichia coli, read-out: MIC E. coli AG100A
# [5] = tested on: K. pneumoniae 848844; experiment: microbe, parasite or virus in culture; assay type: cell-based; details: Klebsiella pneumoniae, 848844, read-out: MIC K. pneumoniae 848844
# [6] = tested on: K. pneumoniae SI-117; experiment: microbe, parasite or virus in culture; assay type: cell-based; details: Klebsiella pneumoniae, SI117, read-out: MIC K. pneumoniae SI-117
# [7] = tested on: A. baumannii ATCC 19606; experiment: microbe, parasite or virus in culture; assay type: cell-based; details: Acinetobacter baumannii, ATCC19606, read-out: MIC, A. baumannii ATCC 19606
# [8] = tested on: P. aeruginosa ATCC 35151; experiment: microbe, parasite or virus in culture; assay type: cell-based; details: Pseudomonas aeruginosa, ATCC35151, read-out: MIC P. aeruginosa ATCC 35151
# [9] = tested on: P. aeruginosa (ΔmexAB-oprM); experiment: Broth microdilution MIC in CAMHB; assay type: cell-based; details: Pseudomonas aeruginosa; read-out: MIC P. aeruginosa ΔmexAB-oprM
# [10] = tested on: N. gonorrhoeae ATCC 49226; experiment: Liquid broth MIC in Fastidious broth; details: Neisseria gonorrhoeae, ATCC49226, read-out: Minimum Inhibitory Concentration (MIC), N. gonorrhoeae ATCC 49226
# Protocol: Additional antibacterial testing of the series was performed in 8 reference strains of N. gonorrhoeae (ATCC 49226, FA1090, MS 11, WHO G, WHO L, WHO M, WHO K, WHO X, WHO Z, WHO Q, CDC-0197). ATCC 49226, FA1090, MS11, WHO G, WHO L, and WHO M produce wild type or wild-type like PBP2. WHO K, WHO X, WHO Z, WHO Q, and CDC-0197 produce mosaic PBP2. Liquid broth-based assays were used for antibacterial testing of PBP inhibitors in Neisseria gonorrhoeae. Briefly, cryo-preserved bacterial cultures of clinical strains were streaked for isolation on Chocolate Agar (72 g/L (2×) GC Agar Base (BD #228950) and 2% (2×) Hemoglobin was autoclaved at 121° C. for 20 minutes to sterilize. Once cooled to ˜50° C. the 2×GC Agar Base and 2× Hemoglobin solutions are combined and 1% IsoVitaleX Enrichment (BD #211876) was added to the solution). Strains were incubated at 36° C. and 5% CO2 to allow growth of colonies, 24 hours before inoculum preparation. 2-fold serial dilutions of test compounds were conducted in a 96 well plate with a final volume of 75 μL per well at 2-fold the final desired concentration in Fastidious broth (Remel #R07664). For preparation of assay inoculum, a direct suspension was prepared by aseptically swabbing 10-15 colonies from agar plates into culture tubes containing 2 mL of fresh sterile saline. After the dilution plates were set up, direct suspensions were then diluted in a cuvette containing sterile saline and the optical density was measured at 600 nm. Inocula were diluted such that 75 μL of this culture in Fastidious broth results in a starting bacterial concentration of 5×10^5 CFU/mL when added to the dilution plates. The plates were incubated for ˜24 hours at 36° C. and 5% CO2.
# [11] = tested on: N. gonorrhoeae FA1090; experiment: Liquid broth MIC in Fastidious broth; details: Neisseria gonorrhoeae, FA1090, read-out: Minimum Inhibitory Concentration (MIC), N. gonorrhoeae FA 1090
# [12] = tested on: N. gonorrhoeae WHO L; experiment: Liquid broth MIC in Fastidious broth; details: Neisseria gonorrhoeae, read-out: Minimum Inhibitory Concentration (MIC), N. gonorrhoeae WHO L
# [13] = tested on: N. gonorrhoeae WHO M; experiment: Liquid broth MIC in Fastidious broth; details: Neisseria gonorrhoeae, read-out: Minimum Inhibitory Concentration (MIC), N. gonorrhoeae WHO M
# [14] = tested on: N. gonorrhoeae WHO X; experiment: Liquid broth MIC in Fastidious broth; details: Neisseria gonorrhoeae, read-out: Minimum Inhibitory Concentration (MIC), N. gonorrhoeae WHO X
# [15] = tested on: N. gonorrhoeae WHO Z; experiment: Liquid broth MIC in Fastidious broth; details: Neisseria gonorrhoeae, read-out: Minimum Inhibitory Concentration (MIC), N. gonorrhoeae WHO Z
# [16] = tested on: N. gonorrhoeae WHO Q; experiment: Liquid broth MIC in Fastidious broth; details: Neisseria gonorrhoeae, read-out: Minimum Inhibitory Concentration (MIC), N. gonorrhoeae WHO Q
SMILES,IC50 [1],MIC [2],MIC [3],MIC [4],MIC [5],MIC [6],MIC [7],MIC [8],MIC [9],MIC [10],MIC [11],MIC [12],MIC [13],MIC [14],MIC [15],MIC [16]
"O=C(O)c1cccc2c1OB(O)[C@@H](NC(=O)C(NC(=O)C1CCCCC1)c1ccc(P(=O)(O)O)cc1)C2 (stereo partly drawn) [Example 31, (3R)-3-(2-(cyclohexanecarboxamido)-2-(4-phosphonophenyl)acetamido)-2-hydroxy-3,4-dihydro-2H-benzo[e][1,2]oxaborinine-8-carboxylic acid]",10 to 50 µM,> 128 µg/mL,32 to 64 µg/mL,> 128 µg/mL,> 128 µg/mL,> 128 µg/mL,> 128 µg/mL,2 to 4 µg/mL,> 128 µg/mL,16 to 32 µg/mL,4 to 8 µg/mL,16 to 32 µg/mL,4 to 8 µg/mL,16 to 32 µg/mL,16 to 32 µg/mL,16 to 32 µg/mL
"O=C(NC(C(=O)N[C@H]1Cc2cccc(C(=O)O)c2OB1O)c1ccc(P(=O)(O)O)cc1)c1ccccn1 (stereo partly drawn) [Example 32, (3R)-2-hydroxy-3-(2-(4-phosphonophenyl)-2-(picolinamido)acetamido)-3,4-dihydro-2H-benzo[e][1,2]oxaborinine-8-carboxylic acid]",< 10 µM,> 128 µg/mL,2 to 4 µg/mL,32 to 64 µg/mL,> 128 µg/mL,> 128 µg/mL,> 128 µg/mL,2 to 4 µg/mL,32 to 64 µg/mL,1 to 2 µg/mL,< 1 µg/mL,16 to 32 µg/mL,< 1 µg/mL,16 to 32 µg/mL,1 to 2 µg/mL,1 to 2 µg/mL
"CC(=O)N1CCC[C@@H]1C(=O)N[C@H](C(=O)N[C@H]1Cc2cccc(C(=O)O)c2OB1O)c1ccc(P(=O)(O)O)cc1 [Example 33, (3R)-3-(2-((R)-1-acetylpyrrolidine-2-carboxamido)-2-(4-phosphonophenyl)acetamido)-2-hydroxy-3,4-dihydro-2H-benzo[e][1,2]oxaborinine-8-carboxylic acid]",10 to 50 µM,> 128 µg/mL,32 to 64 µg/mL,> 128 µg/mL,> 128 µg/mL,> 128 µg/mL,> 128 µg/mL,8 to 16 µg/mL,> 128 µg/mL,16 to 32 µg/mL,4 to 8 µg/mL,16 to 32 µg/mL,4 to 8 µg/mL,16 to 32 µg/mL,16 to 32 µg/mL,16 to 32 µg/mL
"CS(=O)(=O)N1CCC[C@@H]1C(=O)N[C@H](C(=O)N[C@H]1Cc2cccc(C(=O)O)c2OB1O)c1ccc(P(=O)(O)O)cc1 [Example 34, (R)-2-hydroxy-3-((S)-2-((R)-1-(methylsulfonyl)pyrrolidine-2-carboxamido)-2-(4-phosphonophenyl)acetamido)-3,4-dihydro-2H-benzo[e][1,2]oxaborinine-8-carboxylic acid]",50 to 250 µM,> 128 µg/mL,8 to 16 µg/mL,> 128 µg/mL,> 128 µg/mL,> 128 µg/mL,> 128 µg/mL,8 to 16 µg/mL,> 128 µg/mL,16 to 32 µg/mL,4 to 8 µg/mL,16 to 32 µg/mL,4 to 8 µg/mL,16 to 32 µg/mL,16 to 32 µg/mL,16 to 32 µg/mL
"CS(=O)(=O)N1CCC[C@@H]1C(=O)N[C@@H](C(=O)N[C@H]1Cc2cccc(C(=O)O)c2OB1O)c1ccc(P(=O)(O)O)cc1 [Example 35, (R)-2-hydroxy-3-((R)-2-((R)-1-(methylsulfonyl)pyrrolidine-2-carboxamido)-2-(4-phosphonophenyl)acetamido)-3,4-dihydro-2H-benzo[e][1,2]oxaborinine-8-carboxylic acid]",< 10 µM,> 128 µg/mL,8 to 16 µg/mL,> 128 µg/mL,> 128 µg/mL,> 128 µg/mL,> 128 µg/mL,2 to 4 µg/mL,> 128 µg/mL,1 to 2 µg/mL,< 1 µg/mL,16 to 32 µg/mL,< 1 µg/mL,16 to 32 µg/mL,4 to 8 µg/mL,4 to 8 µg/mL
